Assay results from patent publication US20230174473A1, “ANTIMICROBIAL AND ANTIVIRAL SULFUR CONTAINING GLYCEROL MONOESTER DERIVATIVES” (priority 2020, published 2023).
Values after ≈ are worked out from the molar mass of the structure shown.

Tests used:
[1] = tested on: Staphylococcus aureus strain MN8; experiment: MIC and MBC assay, broth dilution with plate counts; format: cell-based; conditions: for minimum bactericidal concentration (MBC) / minimum inhibitory concentration (MIC): Staphylococcus Aureus MN8 strain, 24-hour incubation, Todd Hewitt broth, aerobic 37° C.; for activity compared with GML (log CFU/mL, FIGS. 1A and 1B): staphylococcus aureus MN8 cultured with various concentrations
Description: For this experiment, all cultures were aerobic at 37° C. with 150 RPM gyrotary shaking. Stationary phase with this microbe is 1.0x1010 colony-forming units (CFUs)/ml. The next morning the culture was diluted to approximately 5x10^6/ml in 1 ml amounts of Todd Hewitt broth in 5 ml polystyrene test tubes. The tubes contained serial two-fold dilutions of glycerol monolaurate, SGML, or […]. The control tubes contained no GML or SGML and […] compounds. The compounds were tested in triplicate. […] The control tube contained the highest volume of ethanol that was used to deliver the compounds to each 1 ml test tube. […] Once plated, the plates were incubated aerobically for 24 hours at 37° C. Counts were made to determine CFUs/ml. The CFUs/ml were log-transformed and mean ± SD were determined. Using the standard MIC and MBC assay above with staphylococcus aureus strain […] and […] were tested with GML.

[2] = tested on: TSST-1; format: cell-based, Staphylococcus aureus
[3] = tested on: Escherichia coli; experiment: MIC and MBC test with E. coli; format: cell-based; conditions: for Mininum Bactericidal Concentration / Minimum Inhibitory Concentration: E. coli laboratory strain from a patient with urinary tract infection, same conditions as S. aureus MN8; for effectiveness compared with GML (FIG. 3): E. coli MIC and MBC test
Description: The conditions for this test were the same as in the above example with S. aureus MN8. The E. coli strain was a laboratory strain from a patient with a confirmed urinary tract infection. The strain is maintained in the laboratory at -80° C.

[4] = tested on: Bacillus subtilis; experiment: MIC/MBC at 24 hours; format: cell-based; conditions: Time 0 1.1E+07 CFU/ml, 200 RPM shaking at 37° C.
Description: Bacillus subtilis, an aerobic spore-former, was incubated with 200 RPM shaking at 37° C. The strain was a recent clinical isolate at the University of Iowa, and proves to develop resistance to standard […] agents.
(§1) All solutions used in the MBC and MIC studies were prepared from a stock of 100 mg/ml of either GML, SGML or S2GML in absolute ethanol.

[5] = tested on: Streptococcus pyogenes (Group A streptococcus) 594; experiment: MIC/MBC at 24 hours; format: cell-based; conditions: Streptococcus pyogenes GAS 594, Time 0 2.7E+06 CFU/ml, stationary at 37° C. in 5% CO2
Description: Streptococcus pyogenes (Group A streptococcus) 594 is a standard scarlet fever strain that has been extensively published on. The strain was incubated stationary at 37° C. in 5% CO2.
as §1

[6] = tested on: Candida auris; experiment: MIC/MBC at 24 hours; format: cell-based; conditions: Time 0 4.5E+05 CFU/ml
Description: Candida auris is a newly emerging yeast (fungus) that is causing skin and bloodstream infections in humans. It easily becomes resistant to anti-fungal agents, making development of novel therapeutics a necessity. This organism is related to Candida albicans and other Candida species. The MIC and MBC in the above table show very good activity of both the SGML and S2GML versus this organism.
as §1

[7] = tested on: S. aureus strains; experiment: Susceptibility of S. aureus strains to GML; format: cell-based, Staphylococcus aureus
[8] = tested on: other Gram-positive bacteria and Gram-negative bacteria with an incomplete lipopolysaccharide; experiment: Killing of other bacteria by GML; format: cell-based; conditions: other Gram-positive bacteria and Gram-negative bacteria with lipo-oligosaccharide
[9] = tested on: Gram-negative bacteria with an intact lipopolysaccharide, such as Escherichia coli; experiment: Killing of Gram-negative bacteria with intact lipopolysaccharide by GML; format: cell-based
[10] = tested on: glycerol ester hydrolase (lipase); experiment: Lipase production by S. aureus in presence of GML; format: cell-based, Staphylococcus aureus; conditions: S. aureus strains
[11] = tested on: Staphylococcus aureus; conditions: Gram Positive; Aerobe; 54 strains tested; cited from earlier work
[12] = tested on: Streptococcus pyogenes; conditions: Gram Positive; Aerotolerant Anaerobe; 4 strains tested; cited from earlier work
[13] = tested on: Streptococcus agalactiae; conditions: Gram Positive; Aerotolerant Anaerobe; 3 strains tested; cited from earlier work
[14] = tested on: Group C Streptococcus; conditions: Gram Positive; Aerotolerant Anaerobe; 1 strain tested; cited from earlier work
[15] = tested on: Group F Streptococcus; conditions: Gram Positive; Aerotolerant Anaerobe; 1 strain tested; cited from earlier work
[16] = tested on: Group G Streptococcus; conditions: Gram Positive; Aerotolerant Anaerobe; 1 strain tested; cited from earlier work
[17] = tested on: Streptococcus suis; conditions: Gram Positive; Aerotolerant Anaerobe; 1 strain tested; cited from earlier work
[18] = tested on: Streptococcus sanguinis; conditions: Gram Positive; Aerotolerant Anaerobe; 1 strain tested; cited from earlier work
[19] = tested on: Streptococcus pneumoniae Serotype III; conditions: Gram Positive; Aerotolerant Anaerobe; 2 strains tested; cited from earlier work
[20] = tested on: Enterococcus faecalis; conditions: Gram Positive; Aerotolerant Anaerobe; 1 strain tested; cited from earlier work
[21] = tested on: Listeria monocytogenes; conditions: Gram Positive; Aerobe; 1 strain tested; cited from earlier work
[22] = tested on: Bacillus anthracis Sterne; conditions: Gram Positive; Aerobe; 1 strain tested; cited from earlier work
[23] = tested on: Bacillus cereus; conditions: Gram Positive; Aerobe; 1 strain tested; cited from earlier work
[24] = tested on: Peptostreptococcus species; conditions: Gram Positive; Anaerobe; 1 strain tested; cited from earlier work
[25] = tested on: Clostridium perfringens; conditions: Gram Positive; Anaerobe; 1 strain tested; cited from earlier work
[26] = tested on: Neisseria gonorrhoeae; conditions: Gram Negative; Aerobe; 1 strain tested; cited from earlier work
[27] = tested on: Haemophilus influenza Non-typable; conditions: Gram Negative; Aerobe; 2 strains tested; cited from earlier work
[28] = tested on: Gardnerella vaginalis; conditions: Gram Negative; Aerobe; 2 strains tested; cited from earlier work
[29] = tested on: Campylobacter jejuni; conditions: Gram Negative; Aerobe; 1 strain tested; cited from earlier work
[30] = tested on: Bordetella bronchiseptica; conditions: Gram Negative; Aerobe; 1 strain tested; cited from earlier work
[31] = tested on: Pseudomonas aeruginosa; conditions: Gram Negative; Aerobe; 1 strain tested; cited from earlier work
[32] = tested on: Burkholderia cenocepacia; conditions: Gram Negative; Aerobe; 1 strain tested; cited from earlier work
[33] = tested on: Pasteurella multocida; conditions: Gram Negative; Aerobe; 1 strain tested; cited from earlier work
[34] = tested on: Prevotella melaninogenica; conditions: Gram Negative; Anaerobe; 1 strain tested; cited from earlier work
[35] = tested on: Bacteroides fragilis; conditions: Gram Negative; Anaerobe; 2 strains tested; cited from earlier work
[36] = tested on: Fusobacterium species; conditions: Gram Negative; Anaerobe; 1 strain tested; cited from earlier work
[37] = tested on: Escherichia coli; conditions: Gram Negative; Aerobe; 2 strains tested; cited from earlier work
[38] = tested on: Salmonella Minnesota; conditions: Gram Negative; Aerobe; 1 strain tested; cited from earlier work
[39] = tested on: Enterobacter aerogenes; conditions: Gram Negative; Aerobe; 1 strain tested; cited from earlier work
[40] = tested on: Proteus vulgaris; conditions: Gram Negative; Aerobe; 1 strain tested; cited from earlier work
[41] = tested on: Shigella sonnei; conditions: Gram Negative; Aerobe; 1 strain tested; cited from earlier work
[42] = tested on: Klebsiella pneumoniae; conditions: Gram Negative; Aerobe; 1 strain tested; cited from earlier work
[43] = tested on: Mycobacterium phlei; conditions: Acid Fast; Aerobe; 1 strain tested; cited from earlier work
[44] = tested on: Mycobacterium tuberculosis; conditions: Acid Fast; Aerobe; 1 strain tested; cited from earlier work
[45] = tested on: Mycoplasma hominis; conditions: Cell Wall deficient; Aerobe; 1 strain tested; cited from earlier work
[46] = tested on: Escherichia coli (e. coli); conditions: Welch et al., mBio 2020; cited from earlier work
[47] = tested on: Lipase (glycerol ester hydrolase); experiment: Lipase (glycerol ester hydrolase) assay, esterase resistance; format: biochemical, Staphylococcus aureus; conditions: 500 ug/ml compound; lipase 25 ug/ml; 24 hours at 37° C.
Description: Protocol for Lipase (glycerol ester hydrolase) assay: • 1. Two separate samples of lipase at 25 ug/ml were prepared. • 2. Microscope slides were made up with 500 ug/ml of GML, SGML, or S2ML compounds. • These slides contained 0.85% agarose (Difco) heat solubilized into PBS (0.005 M NaPO4 pH 7.2; 0.15MNaC1). • 3. The mixtures contained the compounds above their solubility limits, so they were vortexed, and 4.5 ml of the cloudy mixtures was spread onto microscope slides. • 4. The slides remained at room temperature for 1 hour to allow the agarose to solidify. • 5. The, 4 mm wells were punched into the agarose, twice per slide. • 6. 20 ul of the Lipase was added to each well. • 7. The slides were incubated for 24 hours at 37° C. • 8. The diameter squared was determined for each. This allows determination of hydrolysis of compound. • GML: 15 mm; 15 mm diameters (diameters squared=225 mm) • SGML: 12 mm; 13 mm diameters (diameters squared=144 mm and 169 mm for an average of 156.5 mm) • S2GML: 0 mm; 0 mm diameters (diameters squared=0) • 10. Diameter squared is used to the determination would be a straight line with a standard curve. • Set GML at 100% • 11. SGML is 70% as much as GML • 12. S2GML is 0% of GML

## CCCCCCCCCCCC(=O)OCC(O)CO (stereo not drawn) [GML, glycerol monolaureate]
[1]; Staphylococcus aureus, MN8, 24 h, read-out: minimum bactericidal concentration (MBC)
  MBC: 250 µg/mL (≈ 911 µM)
[1]; Staphylococcus aureus, MN8, 24 h, read-out: minimum inhibitory concentration (MIC)
  MIC: 250 µg/mL (≈ 911 µM)
[2]
  inhibition of TSST-1: 16 µg/mL
[3]
  Mininum Bactericidal Concentration: 500 µg/mL
[3]; Escherichia coli, read-out: Minimum Inhibitory Concentration
  MIC: 500 µg/mL (≈ 1820 µM)
[4]
  MIC/MBC: 50 µg/mL (≈ 182 µM)
[5]
  MIC/MBC: 1.0 µg/mL (≈ 3.64 µM)
[6]
  MIC/MBC: 50 µg/mL (≈ 182 µM)
[7]; all strains of S. aureus tested
  concentration to which all S. aureus strains tested remain susceptible: ≤ 500 µg/mL
[7]; most S. aureus strains
  bactericidal concentration: 250 µg/mL
[8]
  concentrations that kill: 25 to 50 µg/mL
[9]; with accelerants: low pH and EDTA addition
  concentration that kills: 25 to 50 µg/mL
[9]; without accelerants
  susceptibility to GML: completely resistant
[10]
  GML concentration at which lipase cannot be produced: about 300 µg/ml
[11]
  Average Bactericidal Concentration: 300 mg/mL
[12]
  Average Bactericidal Concentration: 30 mg/mL
[13]
  Average Bactericidal Concentration: 30 mg/mL
[14]
  Average Bactericidal Concentration: 30 mg/mL
[15]
  Average Bactericidal Concentration: 20 mg/mL
[16]
  Average Bactericidal Concentration: 50 mg/mL
[17]
  Average Bactericidal Concentration: 50 mg/mL
[18]
  Average Bactericidal Concentration: 50 mg/mL
[19]
  Average Bactericidal Concentration: 10 mg/mL
[20]
  Average Bactericidal Concentration: 100 mg/mL
[21]
  Average Bactericidal Concentration: 50 mg/mL
[22]
  Average Bactericidal Concentration: 50 mg/mL
[23]
  Average Bactericidal Concentration: 50 mg/mL
[24]
  Average Bactericidal Concentration: 1 mg/mL
[25]
  Average Bactericidal Concentration: 1 mg/mL
[26]
  Average Bactericidal Concentration: 20 mg/mL
[27]
  Average Bactericidal Concentration: 50 mg/mL
[28]
  Average Bactericidal Concentration: 10 mg/mL
[29]
  Average Bactericidal Concentration: 1 mg/mL
[30]
  Average Bactericidal Concentration: 1 mg/mL
[31]
  Average Bactericidal Concentration: Not Susceptible
[32]
  Average Bactericidal Concentration: 500 mg/mL
[33]
  Average Bactericidal Concentration: 500 mg/mL
[34]
  Average Bactericidal Concentration: 50 mg/mL
[35]
  Average Bactericidal Concentration: 50 mg/mL
[36]
  Average Bactericidal Concentration: 50 mg/mL
[37]
  Average Bactericidal Concentration: Not Susceptible
[38]
  Average Bactericidal Concentration: Not Susceptible
[39]
  Average Bactericidal Concentration: Not Susceptible
[40]
  Average Bactericidal Concentration: Not Susceptible
[41]
  Average Bactericidal Concentration: Not Susceptible
[42]
  Average Bactericidal Concentration: Not Susceptible
[43]
  Average Bactericidal Concentration: 100 mg/mL
[44]
  Average Bactericidal Concentration: 100 mg/mL
[45]
  Average Bactericidal Concentration: 1 mg/mL
[46]
  effectiveness against Escherichia coli: not effective

## CCCCCCCCCCCC(=S)SCC(O)CO (stereo not drawn) [Example S2GML, glycerol dithionomonolaureate]
[1]
  minimum bactericidal concentration (MBC): 63.5 µg/mL (≈ 207 µM)
  minimum inhibitory concentration (MIC): 31.125 µg/mL (≈ 102 µM)
  activity compared with GML (log CFU/mL, FIGS. 1A and 1B): clearly has more activity
[2]
  inhibition of TSST-1: < 4 µg/mL
[3]
  effectiveness compared with GML (FIG. 3): performed similarly to GML
  Minimum Inhibitory Concentration: 500 µg/mL
  Mininum Bactericidal Concentration: 500 µg/mL
[47]
  hydrolysis as % of GML (diameter squared, GML set at 100%): 0%
[4]
  MIC/MBC: <1.0 µg/mL
[5]
  MIC/MBC: <0.1 µg/mL
[6]
  MIC/MBC: 1.0 µg/mL (≈ 3.26 µM)

## CCCCCCCCCCCC(=S)OCC(O)CO (stereo not drawn) [SGML, glycerol thionomonolaureate]
[1]
  minimum bactericidal concentration (MBC): 125 µg/mL (≈ 430 µM)
  minimum inhibitory concentration (MIC): 125 µg/mL (≈ 430 µM)
  activity compared with GML (log CFU/mL, FIGS. 1A and 1B): more active than GML
[2]
  inhibition of TSST-1: 8 µg/mL
[3]
  effectiveness compared with GML (FIG. 3): more effective than GML
  Minimum Inhibitory Concentration: 250 µg/mL
  Mininum Bactericidal Concentration: 250 µg/mL
[47]
  hydrolysis as % of GML (diameter squared, GML set at 100%): 70%
[4]
  MIC/MBC: 10 µg/mL (≈ 34.4 µM)
[5]
  MIC/MBC: 0.1 µg/mL (≈ 0.344 µM)
[6]
  MIC/MBC: 10 µg/mL (≈ 34.4 µM)
